Broadly, the IC50 is the concentration at which inhibition is half-maximal. A word on the inhibition: it is the drop in the measured response relative to a control, in per cent. Lower therefore signals a response near the control.

The first assay concerns the target T1, rat NaPi-2b (Rattus norvegicus, UniProt Q9JJ09).
T1 construct: expressed in transfected cells; host or cells: Xenopus oocytes injected with cRNA
T1 sequence (Q9JJ09 1-695): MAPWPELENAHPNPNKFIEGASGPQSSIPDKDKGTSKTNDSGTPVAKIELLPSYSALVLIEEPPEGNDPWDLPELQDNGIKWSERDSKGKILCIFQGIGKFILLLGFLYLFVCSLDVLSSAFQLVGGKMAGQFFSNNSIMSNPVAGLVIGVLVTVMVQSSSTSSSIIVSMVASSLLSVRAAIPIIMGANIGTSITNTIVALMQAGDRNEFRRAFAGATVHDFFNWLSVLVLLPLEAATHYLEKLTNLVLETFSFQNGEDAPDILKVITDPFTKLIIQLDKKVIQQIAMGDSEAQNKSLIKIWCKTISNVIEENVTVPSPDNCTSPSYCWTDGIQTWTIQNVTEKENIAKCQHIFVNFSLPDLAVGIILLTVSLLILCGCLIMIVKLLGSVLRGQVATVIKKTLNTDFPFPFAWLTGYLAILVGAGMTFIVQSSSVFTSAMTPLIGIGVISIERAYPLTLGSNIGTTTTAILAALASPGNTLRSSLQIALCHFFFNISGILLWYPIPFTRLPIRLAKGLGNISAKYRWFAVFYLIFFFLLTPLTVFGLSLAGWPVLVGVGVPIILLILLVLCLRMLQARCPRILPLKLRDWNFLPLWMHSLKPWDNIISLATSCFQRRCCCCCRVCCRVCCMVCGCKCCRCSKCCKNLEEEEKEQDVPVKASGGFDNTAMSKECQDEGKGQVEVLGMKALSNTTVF
Briefly: Sodium-dependent phosphate uptake of Xenopus oocytes which expressed NaPi-2b (32P). The assay is classed as cell-based. The settings on record: Xenopus oocytes expressing rat NaPi-2b, 32P radioactive phosphorus; read-out: IC50 (phosphate uptake inhibitory activity). In outline:
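Oocytes injected with rat NaPi-2b cRNA, cultured 2 d, then 32P uptake measured with compound. Values: % inhibition at 300 and 100 μM, both from one inhibition curve.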
With `O=C(Nc1ccc(Cl)cc1C(=O)N/N=C/c1ccc(Cl)c(C(F)(F)F)c1)c1cccc(C[S+]([O-])Cc2ccco2)c1` (centres unmarked) [Compound 689, N-[4-Chloro-2-(4-chloro-3-trifluoromethyl-benzylidene-hydrazinocarbonyl)-phenyl]-3-(furan-2-ylmethanesulfinylmethyl)-benzamide], the IC50 is less than 3 µM.

Regarding `COc1ccc(/C=N/NC(=O)c2cc(Br)ccc2NC(=O)c2ccc(OC)c(OC)c2)cc1Br` [Compound 97, N-[4-Bromo-2-(3-bromo-4-methoxy-benzylidene-hydrazinocarbonyl)-phenyl]-3,4-dimethoxy-benzamide], the concentration for half-maximal inhibition (IC50) came out at 0.51 µM. On to `COc1ccc(/C=N/NC(=O)c2ccsc2NC(=O)c2cccc(CSCCCO)c2)cc1` [Compound 663, 3-(3-Hydroxy-propylsulfanylmethyl)-N-[3-(4-methoxy-benzylidene-hydrazinocarbonyl)-thiophen-2-yl]-benzamide], for which the concentration for half-maximal inhibition (IC50) is 137 µM. As for `COc1ccc(C(=O)Nc2ccccc2C(=O)N/N=C/c2ccc(F)c(Cl)c2)cc1OC` [Compound 32, N-[2-(3-Chloro-4-fluoro-benzylidene-hydrazinocarbonyl)-phenyl]-3,4-dimethoxy-benzamide], the half-inhibitory concentration (IC50) worked out at 1.95 µM.

As to `COc1ccc(/C=N/NC(=O)c2cc(N3CCCCC3)ccc2NC(=O)c2cccc(CNCCN(CCO)CCO)c2)cc1` [Compound 915, 3-({2-[Bis-(2-hydroxy-ethyl)-amino]-ethylamino}-methyl)-N-[2-(4-methoxy-benzylidene-hydrazinocarbonyl)-4-piperidin-1-yl-phenyl]-benzamide], the IC50 was 8.15 µM.

On to `CCN(CC)Cc1cccc(C(=O)Nc2sc(CN3CCCCC3)c(C)c2C(=O)N/N=C/c2ccc(Cl)c(C(F)(F)F)c2)c1` [Compound 956, N-[3-(4-Chloro-3-trifluoromethyl-benzylidene-hydrazinocarbonyl)-4-methyl-5-piperidin-1-ylmethyl-thiophen-2-yl]-3-diethylaminomethyl-benzamide], for which the IC50 turned out to be 29.8 µM.

For the molecule `COc1ccc(/C=N/NC(=O)c2c(NC(=O)c3cccc(CN(CC(C)O)CC(C)O)c3)sc3c2CCC3)cc1` (centres unmarked) [Compound 809, 3-{[Bis-(2-hydroxy-propyl)-amino]-methyl}-N-[3-(4-methoxy-benzylidene-hydrazinocarbonyl)-5,6-dihydro-4H-cyclopenta[b]thiophen-2-yl]-benzamide], the 50% inhibitory concentration (IC50) turned out to be 5.22 µM. The same measure, in the same setting: then `O=C(Nc1ccc(Cl)cc1C(=O)N/N=C/c1ccc(F)cc1)c1ccncc1` [Compound 190, N-[4-Chloro-2-(4-fluoro-benzylidene-hydrazinocarbonyl)-phenyl]-isonicotinamide], with 20.3 µM; and `O=C(Nc1ccc(Br)cc1C(=O)N/N=C/c1cccc(OCCO)c1)c1ccncc1` [Compound 350, N-{4-Bromo-2-[3-(2-hydroxy-ethoxy)-benzylidene-hydrazinocarbonyl]-phenyl}-isonicotinamide], with 25.3 µM. `O=C(Nc1ccc(Br)cc1C(=O)N/N=C/c1cccc(F)c1)c1cccc(CSc2nc[nH]n2)c1` [Compound 271, N-[4-Bromo-2-(3-fluoro-benzylidene-hydrazinocarbonyl)-phenyl]-3-(1H-[1,2,4]triazol-3-ylsulfanylmethyl)-benzamide]: the IC50 was 0.21 µM. Same read-out and setting: then `O=C(Nc1ccc(Br)cc1C(=O)N/N=C/C=C/c1ccccc1)c1cccnc1` [Compound 346, N-[4-Bromo-2-(3-phenyl-allylidene-hydrazinocarbonyl)-phenyl]-nicotinamide], with 4.46 µM; and `O=C(Nc1ccc(N2CCC(O)CC2)cc1C(=O)N/N=C/c1ccc(Cl)c(C(F)(F)F)c1)c1cccc(CSCCO)c1` [Compound 1062, N-[2-(4-Chloro-3-trifluoromethyl-benzylidene-hydrazinocarbonyl)-4-(4-hydroxy-piperidin-1-yl)-phenyl]-3-(2-hydroxy-ethylsulfanylmethyl)-benzamide], with 6.76 µM.

For the molecule `O=C(Nc1ccc(Cl)cc1C(=O)N/N=C/c1ccc(Cl)c(C(F)(F)F)c1)c1cccc(CN2CCC(N3CCCCC3)CC2)c1` [Compound 373, 3-[1,4′]Bipiperidinyl-1′-ylmethyl-N-[4-chloro-2-(4-chloro-3-trifluoromethyl-benzylidene-hydrazinocarbonyl)-phenyl]-benzamide], the IC50 amounted to 1.68 µM.

With `Cc1cc(/C=N/NC(=O)c2cc(Cl)ccc2NC(=O)c2ccncc2)oc1C` [Compound 223, N-[4-Chloro-2-(4,5-dimethyl-furan-2-ylmethylene-hydrazinocarbonyl)-phenyl]-isonicotinamide], the concentration for half-maximal inhibition (IC50) came to 11.3 µM.

`CCN(CCO)Cc1ccc(C(=O)Nc2ccc(Cl)cc2C(=O)N/N=C/c2cccc(O)c2)cc1` [Compound 440, N-[4-Chloro-2-(3-hydroxy-benzylidene-hydrazinocarbonyl)-phenyl]-4-{[ethyl-(2-hydroxy-ethyl)-amino]-methyl}-benzamide]: the concentration for half-maximal inhibition (IC50) was 32.4 µM. With `COc1cccc(/C=N/NC(=O)c2ccccc2NC(=O)c2ccc(OC)c(OC)c2)c1` [Compound 5, 3,4-Dimethoxy-N-[2-(3-methoxy-benzylidene-hydrazinocarbonyl)-phenyl]-benzamide], the IC50 came to 3.31 µM. On to `COc1ccc(C(=O)Nc2ccccc2C(=O)N/N=C/c2ccc(O)c(C)c2)cc1OC` [Compound 42, N-[2-(4-Hydroxy-3-methyl-benzylidene-hydrazinocarbonyl)-phenyl]-3,4-dimethoxy-benzamide], for which the concentration for half-maximal inhibition (IC50) was 8.21 µM. In the case of `Cc1ccc(/C=N/NC(=O)c2c(C)csc2NC(=O)c2cccc(CN3CCN(CCO)CC3)c2)cc1C` [Compound 575, N-[3-(3,4-Dimethyl-benzylidene-hydrazinocarbonyl)-4-methyl-thiophen-2-yl]-3-[4-(2-hydroxy-ethyl)-piperazin-1-ylmethyl]-benzamide], the half-maximal inhibitory concentration (IC50) was less than 3 µM. As to `Cc1ccc(/C=N/NC(=O)c2cccnc2NC(=O)c2cccc(CN(CC(C)O)CC(C)O)c2)cc1C` (centres unmarked) [Compound 966, 3-{[Bis-(2-hydroxy-propyl)-amino]-methyl}-N-[3-(3,4-dimethyl-benzylidene-hydrazinocarbonyl)-pyridin-2-yl]-benzamide], the IC50 was found to be 16 µM.

As to `COc1cccc(/C=N/NC(=O)c2cc(Br)ccc2NC(=O)c2ccc(CN3CCN(CCO)CC3)cc2)c1` [Compound 323, N-[4-Bromo-2-(3-methoxy-benzylidene-hydrazinocarbonyl)-phenyl]-4-[4-(2-hydroxy-ethyl)-piperazin-1-ylmethyl]-benzamide], the IC50 was determined as 4.69 µM.

Staying with this assay, now noted: phosphate uptake, oocytes expressing rat NaPi-2b; 300 μM, determined from inhibition curve.
`Cc1csc(C(=O)N/N=C/c2cccc(F)c2)c1NC(=O)c1cccc(CSc2nc[nH]n2)c1` [Compound 524, N-[2-(3-Fluoro-benzylidene-hydrazinocarbonyl)-4-methyl-thiophen-3-yl]-3-(1H-[1,2,4]triazol-3-ylsulfanylmethyl)-benzamide] showed an inhibition at 300 µM of 42.8%. As for `COc1ccc(C(=O)Nc2ccc(Cl)cc2C(=O)N/N=C/c2ccccn2)cc1OC` [Compound 244, N-[4-Chloro-2-(pyridin-2-ylmethylene-hydrazinocarbonyl)-phenyl]-3,4-dimethoxy-benzamide], testing at 300 µM gave an inhibition of 30.7%.

`COc1ccc(/C=N/NC(=O)c2cc(Br)ccc2NC(=O)c2ccc(CNCCN3CCOCC3)cc2)cc1` [Compound 715, N-[4-Bromo-2-(4-methoxy-benzylidene-hydrazinocarbonyl)-phenyl]-4-[(2-morpholin-4-yl-ethylamino)-methyl]-benzamide] yielded an inhibition at 300 µM of 84.1%.

(Values after US8134015B2, “Compound inhibiting in vivo phosphorous transport and medicine containing the same” (Kyowa Hakko Kirin Co., Ltd., priority 2003, dated 2012).)
